From ChEMBL document CHEMBL5625211, “Neutral sphingomyelinase 2 inhibitors based on the pyrazolo[1,5-a]pyrimidin-3-amine scaffold” (Eur J Med Chem, 2023)

Columns and labels:
[1] = Drug concentration in Wistar rat brain at 10 mg/kg, po measured after 30 mins by LC-MS/MS method; type: ADME, organism-based; settings: in vivo, 0.5 h
[2] = Drug concentration in Wistar rat plasma at 10 mg/kg, po measured after 30 mins by LC-MS/MS method; type: ADME, organism-based

For `CN(C)c1cnn2ccc(N3CCOCC3)nc12`, the Drug uptake [1] was “Active” and the concentration at 0.5 h [2] was over 2000 nM.
